Results taken from patent US20030050274A1, “Composition containing S-adenosylmethionine for treating or preventing insulin resistance syndrome” (priority 2001, published 2003).

Assays:
Type in all cases: in vivo, rat
[1] = system: OLETF (Otsuka Long Evans Tokushima Fatty) rats; test: Glucose load test
Procedure: (§1) 14 six-week-old OLETF (Otsuka Long Evans Tokushima Fatty) rats (Otsuka Research Lab., Tokushima, bred for use as a non-insulin-dependent diabetes mellitus model) were evenly divided into two injection groups. The rats of two groups were administered into the abdominal cavity either with S-adenosylmethionine (SAMe(+) group) or with a vehicle containing L-lysine (SAMe(−) group) at a daily dose of 15 mg/kg body weight for a duration of up to 19 weeks. 7 six-week-old LETO (Long Evans Tokushima Otsuka) rats (Otsuka Research Lab., Tokushima, normal rats) were used as a normal control group (Control group). The rats of each group were examined for their weight changes, and checked by way of conducting glucose load tests and euglycemic hyperinsulinemic clamp tests to measure the effect of S-adenosylmethionine on the insulin secretion and insulin sensitivity.
(§2) Test data were analyzed to represent each test result in the form of mean±standard error mean. Differences in weight changes among the groups were analyzed by ANOVA with Least Significance Difference using SPSS/PC 10.0, and the differences in glucose load and clamp test results, by the Kruskall-Wallis test and checked using the Mann-Whitney probation method. The significance level was set at a p value of 0.05 or below.
On the 19th week after the administration had begun, the rats were starved for 6 hours and a 35% glucose solution (0.5 g glucose/kg body weight) was bolus-infused into each rat through the tail artery. At 0, 2, 6, 8, 10, 15, 20 and 30 minites after the infusion, a 200 μl blood sample was taken from the tail artery of each rat, centrifuged and the plasma supernatant was separated. The blood glucose level was determined by employing YSI 2300.
In addition, the glucose loss rate ( % /min) was calculated from the inclination of log-converted values of glucose concentrations measured during 2 to 15 minutes after the infusion. The glucose loss rates of the SAM(+) and SAM(−) groups were similar at 3.69±0.29 and 3.23±0.32%/min, respectively, while that of the Control group was much higher at 5.13±0.29%/min.

SD-based rats = test: Toxicity of orally administered S-adenosylmethionine
Procedure: 8 six-week-old, specific pathogen-free SD-based rats were evenly divided into four groups, which were orally administered with S-adenosylmethionine suspended in a 0.5% methylcellulose solution at a dose of 50, 100, 200 and 500 mg SAMe/kg body weight, respectively. […] Every 12 hours thereafter, the weight changes of the rats were recorded to examine the effect of S-adenosylmethionine. Further, on the 10th day, the rats were sacrificed and the internal organs were visually examined.

[2] = system: OLETF (Otsuka Long Evans Tokushima Fatty) rats; test: Euglycemic hyperinsulinemic clamp test
Procedure: as §1, with “The rats of each group were examined for their weight changes, and checked by way of conducting glucose load tests and euglycemic hyperinsulinemic clamp tests to measure the effect of S-adenosylmethionine on the insulin secretion and insulin sensitivity.” left out
Test data were analyzed to represent each test result in the form of mean±standard error mean. Differences in weight changes among the groups were analyzed by ANOVA with Least Significance Difference using SPSS/PC 10.0, and the differences in glucose load and clamp test results, by the Kruskall-Wallis test and checked using the Mann-Whitney probation method. […]
Based on the fact that the amount of glucose infused to maintain the steady basal level is equal to the amount of glucose consumed in the body, insulin resistance of each group was determined from the mean glucose infusion rate (mg/kg/min) during the clamp test period. […]

[3] = system: OLETF (Otsuka Long Evans Tokushima Fatty) rats; test: Weight change of OLETF rats administered S-adenosylmethionine; design: Body Weight: dose or concentration left out as unconfirmed
Procedure: as §1, §2
(1-1) Weight Change At 0, 1, 2, 4, 8, 13, 16 and 19 weeks after the administration had begun, the weight changes of the rats of the three groups were recorded.

[4] = measurement time period 0-30 min after the infusion

Which “blood glucose levels measured at 6 and 8 minutes after the infusion as compared with the SAM(−) group” value ([1]; OLETF rats, 19th week of 15 mg/kg/day) does the source give for `C[S+](CC[C@H](N)C(=O)[O-])C[C@H]1O[C@@H](n2cnc3c(N)ncnc32)[C@H](O)[C@@H]1O` (stereo partly drawn) [S-adenosylmethionine] here?
Its value is “significantly lower”.

What about the “Blood Glucose Level” value ([1]; OLETF rats, 19th week of 15 mg/kg/day, 0 min after 0.5 g/kg glucose infusion) of the same molecule?
The value was 118 mg/dL.

What about the “Blood Glucose Level” value ([1]; OLETF rats, 19th week of 15 mg/kg/day, 2 min after 0.5 g/kg glucose infusion) of the same molecule?
Its value is 368 mg/dL.

What about the “Blood Glucose Level” value ([1]; OLETF rats, 19th week of 15 mg/kg/day, 6 min after 0.5 g/kg glucose infusion) of the same molecule?
Its value is 291 mg/dL.

And the “Blood Glucose Level” value ([1]; OLETF rats, 19th week of 15 mg/kg/day, 8 min after 0.5 g/kg glucose infusion)?
The value was 265 mg/dL.

And the “Blood Glucose Level” value ([1]; OLETF rats, 19th week of 15 mg/kg/day, 10 min after 0.5 g/kg glucose infusion)?
The value was 257 mg/dL.

What about the “Blood Glucose Level” value ([1]; OLETF rats, 19th week of 15 mg/kg/day, 15 min after 0.5 g/kg glucose infusion) of the same molecule?
Its value is 224 mg/dL.

What about the “Blood Glucose Level” value ([1]; OLETF rats, 19th week of 15 mg/kg/day, 20 min after 0.5 g/kg glucose infusion) of the same molecule?
Its value is 204 mg/dL.

And the “Blood Glucose Level” value ([1]; OLETF rats, 19th week of 15 mg/kg/day, 30 min after 0.5 g/kg glucose infusion)?
Its value is 172 mg/dL.

And the glucose loss rate ([1]; from inclination of log-converted glucose concentrations, 2 to 15 minutes after the infusion)?
The glucose loss rate was 3.69±0.29 %/min.

What about the “area obtained by integrating the blood glucose level curve” value [1, 4] of the same molecule?
The value was 234±9.6 (mg/dl).min.

And the “area under blood glucose level curve, difference among SAM(+), SAM(−) and Control groups” value [1, 4]?
The value was “no significant differences”.

What about the toxicity (SD-based rats; rat, oral, dose of 500 mg/kg, observed 10 days) of the same molecule?
Its toxicity is “no toxicity”.

And the “autopsy: pathological abnormality of internal organs” value (SD-based rats; rats, oral 50-500 mg/kg, 10th day)?
The value was “did not develop any pathological abnormality”.

And the weight loss (SD-based rats; rats, oral 50-500 mg/kg, 10 day test period)?
The weight loss was “no weight loss”.

What about the “survival at day 10” value (SD-based rats; rats, oral single dose 50, 100, 200 and 500 mg/kg) of the same molecule?
The value was “All the rats were alive”.

And the “mean glucose infusion rate” value ([2]; 19th week of 15 mg/kg/day, insulin 12 mU/kg/min, clamp period 60 to 120 min)?
Its value is 16.7 ± 1.70 mg/kg/min.

And the insulin resistance ([2]; conclusion from clamp test)?
Its insulin resistance is “effectively lowers the insulin resistance”.

What about the “ratio of weight gain as compared with the SAM(−) group” value ([3]; OLETF rats, 15 mg/kg/day into abdominal cavity, up to 19 weeks) of the same molecule?
The value was “significantly lower”.

And the “Body Weight” value ([3]; week 0)?
Its value is 220 g.

What about the “Body Weight” value ([3]; week 1) of the same molecule?
Its value is 299 g.

And the “Body Weight” value ([3]; week 2)?
Its value is 343 g.

What about the “Body Weight” value ([3]; week 4) of the same molecule?
The value was 403 g.

What about the “Body Weight” value ([3]; week 8) of the same molecule?
Its value is 464 g.

And the “Body Weight” value ([3]; week 13)?
Its value is 498 g.

What about the “Body Weight” value ([3]; week 16) of the same molecule?
The value was 528 g.

And the “Body Weight” value ([3]; week 19)?
The value was 565 g.
